Results on 63 compounds are retold here after patent US20060252807A1, “Novel ortho-terphenyl inhibitors of p38 kinase and methods of treating inflammatory disorders” (Kalypsys, Inc., priority 2005, published 2006).

For the assay, the target named is T1, active p38 alpha enzyme (Upstate Biotechnology) (Homo sapiens, UniProt Q16539).
T1 construct: purchased Upstate Biotechnology
As to the kind of experiment: p38α biochemical assay (ATP turnover, luminescent detection, Cambrex PKlight). To be noted: p38α kinase; Table 1 Biological Activity. The method, boiled down:
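Luminescent ATP-depletion readout measures total ATP turnover by p38α phosphorylating whole MapkapK2 protein. ATP 1.4 uM final; 30C, 2 h. Compounds delivered from DMSO.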

T1 sequence (Q16539 whole entry): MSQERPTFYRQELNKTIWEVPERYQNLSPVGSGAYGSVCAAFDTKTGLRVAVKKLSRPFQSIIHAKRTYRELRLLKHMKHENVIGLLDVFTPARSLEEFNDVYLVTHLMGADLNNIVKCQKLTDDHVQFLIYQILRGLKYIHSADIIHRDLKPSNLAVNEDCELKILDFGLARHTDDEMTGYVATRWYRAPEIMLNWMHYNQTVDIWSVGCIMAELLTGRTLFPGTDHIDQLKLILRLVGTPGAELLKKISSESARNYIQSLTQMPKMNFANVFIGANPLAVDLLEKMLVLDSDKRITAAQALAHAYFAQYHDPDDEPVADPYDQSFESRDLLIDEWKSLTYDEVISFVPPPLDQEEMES

As usually defined, the IC50 is the point on the concentration scale where inhibition reaches its midpoint. Low values mean greater potency, high ones weaker potency. `CC(C)NC(=O)c1csc(-c2c(-c3ccc(F)cc3)noc2CN(CCO)Cc2ccccc2)n1` [Example 1559] gave an IC50 of over 1000 nM.
For `CC(C)NC(=O)c1csc(-c2c(-c3ccc(F)cc3)noc2CN(C)CC(O)c2ccccc2)n1` (stereo not drawn) [Example 1560] the value was over 1000 nM; for `CC(C)NC(=O)c1csc(-c2c(-c3ccc(F)cc3)noc2CN2CCC(O)(O)CC2)n1` [Example 1561], over 1000 nM; for `CCOC(=O)C1CCN(Cc2onc(-c3ccc(F)cc3)c2-c2nc(C(=O)NC(C)C)cs2)CC1` [Example 1562], over 1000 nM.
To `CCOC(=O)C1CCCN(Cc2onc(-c3ccc(F)cc3)c2-c2nc(C(=O)NC(C)C)cs2)C1` (stereo not drawn) [Example 1563] belongs over 1000 nM; to `CCOC(=O)N1CCN(Cc2onc(-c3ccc(F)cc3)c2-c2nc(C(=O)NC(C)C)cs2)CC1` [Example 1564], over 1000 nM; to `CC(C)NC(=O)c1csc(-c2c(-c3ccc(F)cc3)noc2CN(CCC#N)Cc2cccnc2)n1` [Example 1566], over 1000 nM.
Compound `CC(C)NC(=O)c1csc(-c2c(-c3ccc(F)cc3)noc2CN2CCN(c3ccccc3)CC2)n1` [Example 1567] returned an IC50 of over 1000 nM.
Turning to `CC(C)NC(=O)c1csc(-c2c(-c3ccc(F)cc3)noc2CN2CCN(c3ccccn3)CC2)n1` [Example 1568], the half-inhibitory concentration (IC50) was over 1000 nM.
For `CCCCN(Cc1ccccc1)Cc1onc(-c2ccc(F)cc2)c1-c1nc(C(=O)NC(C)C)cs1` [Example 1569] the value was over 1000 nM; for `CC(C)NC(=O)c1csc(-c2c(-c3ccc(F)cc3)noc2CN(CCO)[C@H](C)c2ccccc2)n1` [Example 1570], over 1000 nM; for `CC(C)NC(=O)c1csc(-c2c(-c3ccc(F)cc3)noc2CN(CCCO)Cc2ccccn2)n1` [Example 1571], over 1000 nM.
Compound `CC(C)NC(=O)c1csc(-c2c(-c3ccc(F)cc3)noc2CN(C)CC(O)c2ccc(O)cc2)n1` (stereo not drawn) [Example 1572] came in with a 50% inhibitory concentration (IC50) of over 1000 nM.
For `CC(C)NC(=O)c1csc(-c2c(-c3ccc(F)cc3)noc2CN2CCN(C3CCCCC3)CC2)n1` [Example 1573] the value was over 1000 nM; for `CC(C)NC(=O)c1csc(-c2c(-c3ccc(F)cc3)noc2CN2CCC(Cc3ccccc3)CC2)n1` [Example 1574], over 1000 nM.
To `CC(C)NC(=O)c1csc(-c2c(-c3ccc(F)cc3)noc2CN2CCN(Cc3ccccc3)CC2)n1` [Example 1575] belongs over 1000 nM; to `CC(C)NC(=O)c1csc(-c2c(-c3ccc(F)cc3)noc2CN2CCCN(Cc3ccccc3)CC2)n1` [Example 1576], over 1000 nM; to `CC(C)NC(=O)c1csc(-c2c(-c3ccc(F)cc3)noc2CN2CCN(c3ccc(O)cc3)CC2)n1` [Example 1577], over 1000 nM.
As for `CC(C)NC(=O)c1csc(-c2c(-c3ccc(F)cc3)noc2CN(CCN(C)C)Cc2ccccc2)n1` [Example 1578], the IC50 was over 1000 nM.
To `CC(C)NC(=O)c1csc(-c2c(-c3ccc(F)cc3)noc2CN2CCN(c3ccccc3F)CC2)n1` [Example 1579] belongs over 1000 nM; to `CC(C)NC(=O)C1=CSC(c2c(-c3ccc(F)cc3)noc2CN2CCN(c3ccc(F)cc3)CC2)=NC1` [Example 1580], over 1000 nM; to `CC(C)NC(=O)c1csc(-c2c(-c3ccc(F)cc3)noc2CN2CCN(CC3CCCCC3)CC2)n1` [Example 1581], over 1000 nM.
To `CC(C)NC(=O)c1csc(-c2c(-c3ccc(F)cc3)noc2CN(C)C[C@H](O)c2ccc(O)c(O)c2)n1` [Example 1582] belongs over 1000 nM; to `CCOC(=O)CC1C(=O)NCCN1Cc1onc(-c2ccc(F)cc2)c1-c1nc(C(=O)NC(C)C)cs1` (stereo not drawn) [Example 1583], over 1000 nM.
To `CC(C)NC(=O)c1csc(-c2c(-c3ccc(F)cc3)noc2CN2CCN(C(=O)OC(C)(C)C)CC2)n1` [Example 1584] belongs over 1000 nM; to `CC(C)NC(=O)c1csc(-c2c(-c3ccc(F)cc3)noc2CN2CCC(NC(=O)OC(C)(C)C)C2)n1` (stereo not drawn) [Example 1585], over 1000 nM.
`CC(C)NC(=O)c1csc(-c2c(-c3ccc(F)cc3)noc2CN2CCN(c3ccccc3C#N)CC2)n1` [Example 1586] returned a half-inhibitory concentration (IC50) of over 1000 nM.
The compound `CC(C)NC(=O)c1csc(-c2c(-c3ccc(F)cc3)noc2CN2CCN(c3ccc(C#N)cn3)CC2)n1` [Example 1587] had an IC50 of over 1000 nM.
For `Cc1cccc(N2CCN(Cc3onc(-c4ccc(F)cc4)c3-c3nc(C(=O)NC(C)C)cs3)CC2)c1C` [Example 1588], the IC50 is over 1000 nM.
As to `Cc1cccc(N2CCN(Cc3onc(-c4ccc(F)cc4)c3-c3nc(C(=O)NC(C)C)cs3)CC2C)c1` (stereo not drawn) [Example 1590], the 50% inhibitory concentration (IC50) is over 1000 nM.
For `CC(C)NC(=O)c1csc(-c2c(-c3ccc(F)cc3)noc2CN2CCN(CCc3ccccc3)CC2)n1` [Example 1591] the value was over 1000 nM; for `Cc1ccc(N2CCN(Cc3onc(-c4ccc(F)cc4)c3-c3nc(C(=O)NC(C)C)cs3)CC2)cc1C` [Example 1592], over 1000 nM.
To `Cc1ccc(N2CCN(Cc3onc(-c4ccc(F)cc4)c3-c3nc(C(=O)NC(C)C)cs3)CC2)c(C)c1` [Example 1593] belongs over 1000 nM.
In turn, `Cc1ccc(C)c(N2CCN(Cc3onc(-c4ccc(F)cc4)c3-c3nc(C(=O)NC(C)C)cs3)CC2)c1` [Example 1594] showed an IC50 of over 1000 nM.
For `COc1ccc(N2CCN(Cc3onc(-c4ccc(F)cc4)c3-c3nc(C(=O)NC(C)C)cs3)CC2)cc1` [Example 1595] the value was over 1000 nM; for `COc1ccccc1N1CCN(Cc2onc(-c3ccc(F)cc3)c2-c2nc(C(=O)NC(C)C)cs2)CC1` [Example 1596], over 1000 nM.
`COc1cccc(N2CCN(Cc3onc(-c4ccc(F)cc4)c3-c3nc(C(=O)NC(C)C)cs3)CC2)c1` [Example 1597]: the IC50 is over 1000 nM.
To `COc1ccc(CCN(C)Cc2onc(-c3ccc(F)cc3)c2-c2nc(C(=O)NC(C)C)cs2)cc1OC` [Example 1598] belongs over 1000 nM; to `CC(C)NC(=O)c1csc(-c2c(-c3ccc(F)cc3)noc2CN2CCN(c3cccc(Cl)c3)CC2)n1` [Example 1599], over 1000 nM; to `CC(C)NC(=O)c1csc(-c2c(-c3ccc(F)cc3)noc2CN2CCN(c3ccc(Cl)cc3)CC2)n1` [Example 1600], over 1000 nM.
To `CC(C)NC(=O)c1csc(-c2c(-c3ccc(F)cc3)noc2CN2CCN(c3ccc(F)cc3F)CC2)n1` [Example 1602] belongs over 1000 nM; to `CC(C)NC(=O)c1csc(-c2c(-c3ccc(F)cc3)noc2CN(Cc2cccnc2)Cc2cccnc2)n1` [Example 1603], over 1000 nM.
The compound `CC(C)NC(=O)c1csc(-c2c(-c3ccc(F)cc3)noc2CN2CCN(CCN3CCOCC3)CC2)n1` [Example 1604] returned an IC50 of over 1000 nM.
`CC(C)NC(=O)c1csc(-c2c(-c3ccc(F)cc3)noc2CN2CCC(N(C)C(=O)OC(C)(C)C)C2)n1` (stereo not drawn) [Example 1605] came in with an IC50 of over 1000 nM.
Compound `CC(=O)c1ccc(N2CCN(Cc3onc(-c4ccc(F)cc4)c3-c3nc(C(=O)NC(C)C)cs3)CC2)cc1` [Example 1606] came in with an IC50 of over 1000 nM.
`CCN(CC)CCN(Cc1ccccc1)Cc1onc(-c2ccc(F)cc2)c1-c1nc(C(=O)NC(C)C)cs1` [Example 1607] displayed a half-inhibitory concentration (IC50) of over 1000 nM.
To `CC(C)NC(=O)c1csc(-c2c(-c3ccc(F)cc3)noc2CN2CCN(c3ccc([N+](=O)[O-])cc3)CC2)n1` [Example 1608] belongs over 1000 nM; to `CC(C)NC(=O)c1csc(-c2c(-c3ccc(F)cc3)noc2CN(C)Cc2cccc3ccccc23)n1` [Example 1609], over 1000 nM.
To `Cc1ccc(Cl)cc1N1CCN(Cc2onc(-c3ccc(F)cc3)c2-c2nc(C(=O)NC(C)C)cs2)CC1` [Example 1610] belongs over 1000 nM; to `COc1cc(CN(C)Cc2onc(-c3ccc(F)cc3)c2-c2nc(C(=O)NC(C)C)cs2)cc(OC)c1OC` [Example 1611], over 1000 nM; to `CC(C)NC(=O)c1csc(-c2c(-c3ccc(F)cc3)noc2CN(CCc2ccccc2)Cc2ccccc2)n1` [Example 1612], over 1000 nM.
Take `CC(C)NC(=O)c1csc(-c2c(-c3ccc(F)cc3)noc2CN(C)C(Cc2ccccc2)c2ccccc2)n1` (stereo not drawn) [Example 1614]: the IC50 is over 1000 nM.
In turn, `CC(C)NC(=O)c1csc(-c2c(-c3ccc(F)cc3)noc2CN2CCC(O)(c3ccc(Cl)cc3)CC2)n1` [Example 1615] yielded a half-maximal inhibitory concentration (IC50) of over 1000 nM.
`C#CCN(Cc1ccc(Cl)cc1Cl)Cc1onc(-c2ccc(F)cc2)c1-c1nc(C(=O)NC(C)C)cs1` [Example 1616]: the IC50 is over 1000 nM.
For `CCN(Cc1onc(-c2ccc(F)cc2)c1-c1nc(C(=O)NC(C)C)cs1)C(Cc1ccccc1)c1ccco1` (stereo not drawn) [Example 1617] the value was at most 1000 nM; for `CC(C)NC(=O)c1csc(-c2c(-c3ccc(F)cc3)noc2CN2CCN(C(=O)OC(C)(C)C)C[C@H]2CO)n1` [Example 1618], over 1000 nM.
`CC(C)NC(=O)c1csc(-c2c(-c3ccc(F)cc3)noc2CN2CCN(c3ccc(C(C)(C)C)cc3)CC2)n1` [Example 1619] displayed an IC50 of over 1000 nM.
In turn, `CC(C)NC(=O)c1csc(-c2c(-c3ccc(F)cc3)noc2CN2CCN(Cc3ccc4c(c3)OCO4)CC2)n1` [Example 1620] gave an IC50 of over 1000 nM.
`COc1cc2c(cc1OC)CN(Cc1onc(-c3ccc(F)cc3)c1-c1nc(C(=O)NC(C)C)cs1)CC2` [Example 1621]: the IC50 was over 1000 nM.
To `CC(C)NC(=O)c1csc(-c2c(-c3ccc(F)cc3)noc2CN2CCN(c3ccc(C(F)(F)F)cc3)CC2)n1` [Example 1622] belongs over 1000 nM; to `CC(C)NC(=O)c1csc(-c2c(-c3ccc(F)cc3)noc2CN2CCN(c3cccc(C(F)(F)F)c3)CC2)n1` [Example 1623], over 1000 nM.
To `CC(C)NC(=O)c1csc(-c2c(-c3ccc(F)cc3)noc2CN2CCN(c3ccc(Cl)c(Cl)c3)CC2)n1` [Example 1624] belongs over 1000 nM; to `CC(C)NC(=O)c1csc(-c2c(-c3ccc(F)cc3)noc2CN2CCN(c3ccc(C(F)(F)F)cn3)CC2)n1` [Example 1626], over 1000 nM.
